The text below walks through data of patent US6673798B2, “PDGF receptor kinase inhibitory compounds, their preparation, purification and pharmaceutical compositions including same” (Yissum Research Development Company of the Hebrew …, priority 1999, dated 2004).

The target of experiment [1] is PDGF β-receptor (Homo sapiens, UniProt P09619). The experiment is described as follows: PDGF-induced PDGFR autophosphorylation in intact PAEC cells. Also noted: expressed in transfected cells; host or cells: porcine aortic endothelial cells (PAEC), stably transfected. Particulars: intact PAEC cells expressing PDGFR, PDGF-BB stimulated; read-out: IC50 (50% inhibition of phosphorylation) PDGFR. It is filed as cell-based. As to the method: (§1) Effect of tyrphostins on PDGF-induced PDGFR autophosphorylation in intact PAEC cells: PAEC cells, transfected with either PDGFR or KDR, cultivated in Ham's F-12 medium supplemented with 10% fetal calf serum (FCS), were synchronized for 20 hours in a medium containing 0.01% BSA. […] After stimulation, the cells were solubilized in Nonidet P-40 (1%) containing lysis buffer.
Chain of PDGF β-receptor (P09619 33-1106): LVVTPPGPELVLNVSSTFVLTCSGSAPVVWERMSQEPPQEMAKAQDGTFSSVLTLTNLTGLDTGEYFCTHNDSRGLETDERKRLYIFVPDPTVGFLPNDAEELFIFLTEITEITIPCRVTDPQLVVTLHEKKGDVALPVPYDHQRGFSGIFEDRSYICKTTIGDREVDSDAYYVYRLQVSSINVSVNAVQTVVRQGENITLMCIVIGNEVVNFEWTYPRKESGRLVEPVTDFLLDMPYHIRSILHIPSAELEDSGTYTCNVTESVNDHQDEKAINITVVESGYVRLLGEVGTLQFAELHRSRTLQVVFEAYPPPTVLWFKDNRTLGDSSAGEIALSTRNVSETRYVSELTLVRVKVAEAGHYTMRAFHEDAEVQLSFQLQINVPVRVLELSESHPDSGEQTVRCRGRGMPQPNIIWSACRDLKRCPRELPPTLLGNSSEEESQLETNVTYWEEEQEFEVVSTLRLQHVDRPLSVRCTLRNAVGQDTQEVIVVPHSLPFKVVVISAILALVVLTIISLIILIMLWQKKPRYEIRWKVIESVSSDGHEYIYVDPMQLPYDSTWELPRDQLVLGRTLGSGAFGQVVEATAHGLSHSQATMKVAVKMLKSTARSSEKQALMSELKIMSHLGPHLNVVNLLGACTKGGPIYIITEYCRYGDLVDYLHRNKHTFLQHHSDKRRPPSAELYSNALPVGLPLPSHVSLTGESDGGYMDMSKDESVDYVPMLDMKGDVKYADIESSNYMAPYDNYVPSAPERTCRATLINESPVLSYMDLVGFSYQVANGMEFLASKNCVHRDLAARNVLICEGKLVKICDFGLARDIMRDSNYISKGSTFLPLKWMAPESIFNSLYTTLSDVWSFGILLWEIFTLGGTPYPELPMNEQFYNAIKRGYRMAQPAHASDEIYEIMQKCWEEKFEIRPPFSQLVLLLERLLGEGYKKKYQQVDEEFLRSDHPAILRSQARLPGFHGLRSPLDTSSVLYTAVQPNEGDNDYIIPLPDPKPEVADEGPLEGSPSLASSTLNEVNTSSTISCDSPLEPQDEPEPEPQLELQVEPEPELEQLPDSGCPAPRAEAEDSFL
The analysis of PDGF β-receptor phosphorylation was performed as follows. Cell lysates were subjected to immunoprecipitation using the PDGF β-receptor specific antiserum R3 [5]. The precipitates were subjected to polyacrylamide (7.5%) gel electrophoresis in presence of sodium dodecyl sulfate (SDS-PAGE) and were thereafter blotted onto a nitrocellulose membrane (Hybond C-EXTRA, Amersham). Phosphorylated proteins were detected by immunoblotting using the horseradish-peroxidase conjugated phosphotyrosine antibodies PY20 and 4G10 (Upstate Biotechnology), followed by application of secondary horseradish-peroxidase conjugated goat-anti-mouse antibody and chemoluminescence-based detection (ECL, Amersham) and autoradiography.
The data in Table 9 presents the differential potencies of the various compounds with respect to PDGFR and KDR, as was performed on intact PAEC cells expressing these receptors (see experimental methods section above).

Experiment [2] concerns the target T1, PDGFβR (Mus musculus, UniProt P05622).
T1 construct: A preparation of purified PDGFR from Swiss 3T3 cell membranes was used; endogenous in cells
As to the kind of experiment: PDGFR autophosphorylation, purified receptor from Swiss 3T3 cell membranes (cell free). Format: biochemical. Particulars: for % of Control (percent autokinase activity): isolated PDGFβR; for IC50: isolated PDGFR from Swiss 3T3 cell membranes, read-out: IC50 (50% inhibition of phosphorylation). As to the method:
In vitro effect of tyrphostins on purified PDGFR autophosphroylation: Membranes were prepared from confluent cultures of canine kidney epithelial cells (TRMP) or Swiss 3T3 cells as described. Further purification of the PDGF-βR was performed as described in [23]. Briefly, 2 μl kinase preparation were incubated for 20 minutes on ice in the presence of 2 μg/ml PDGF-BB in 20 μl of 50 mM Hepes (pH 7.4). Kinase reaction was executed for 10 minute on ice with 5 mM MnCl2, 1 mM vanadate, 10 μM [γ-^32P]ATP (2.5 μCi per reaction). The reaction was terminated by addition of 10 μl of a solution containing 6% SDS, 30% β-mercaptoethanol, 40% glycerol, and 0.5 mg/ml bromophenol blue. The samples were heated for 5 minutes at 95° C. and subjected to polyacrylamide gel electrophoresis in the presence of 0.4% SDS, using 7.5% polyacrylamide gels. The gels were stained, dried and subjected to autoradiographic analysis. For quantification of radioactivity in electrophoresis gels, a Phospho-Imager (Molecular Dynamics, Fuji, or Bio-Rad) was used according to the instructions of the manufacturer. To obtain autoradiograms, objects were exposed to X-ray film (Fuji RX or Kodak X-OMAT) with intensifying screens at −70° C.
Inhibition of PDGF-induced tyrosine phosphorylation by tyrphostins in vitro: A preparation of purified PDGFR from Swiss 3T3 cell membranes was used to assess and compare the inhibitory effects of tyrphostin compounds on tyrosine kinase activity. Various concentrations of the purified “transoid” isomers AG2033 and AG2043, were evaluated. Table 8 below presents IC50 values (50% inhibition of phosphorylation, μM) of AG2033 and AG2043. Data presents the potencies of the compounds with respect to PDGFR, as was determined using the isolated receptor (see experimental methods section above).
Kinase reactions, using an isolated PDGFβR preparation, in the presence of 0.03-3 μM tyrphostin, were conducted, utilizing [γ-^32P]ATP as probe. Densitometric evaluation, relative to control lacking the tyrphostin inhibitor (100%), results in the percent autokinase activity, presented in Table 8 and in the dose-response curves for the purified transoid isomers AG2033 (FIG. 6) and AG2043 (FIG. 7). Further comparison between the resulting autoradiogrms for each pair of geometrical isomers AG2033 and AG2034 (upper panel); AG2043 and AG2044 (lower panel), for their inhibitory activity towards PDGF-induced PDGFβR autophosphorylation (concentration range: 0.1-10 μM) in intact cells is presented in FIG. 8. […] Similar potency relation exists between the AG2043 and AG2044 isomers.

In experiment [3] the test system is human coronary artery SMC (HCASMC). The experiment is described as follows: HCASMC migration (Boyden chamber). It is filed as cell-based. As to the method:
Human coronary artery endothelial cells (HCAEC) and human coronary artery smooth muscle cells (HCASMC) were purchased from Clonetics (Heidelberg), and grown in EBM medium (supplemented with EGM-MV SINGLE QUOTS®) or in SmBM medium (supplemented with SmGM-2 SINGLE QUOTS®), respectively (Clonetics).
Assessment of cell migration (Chemotaxis assay): The chemotactic response of HCASMC, PAEC/KDR and PAEC/PDGFR cells was assessed using the modified Boyden chamber (Neuro Probe, Inc.) and collagen-coated polycarbonate filters (Nucleopore) with pore diameters of 8 μm as previously described. Briefly, PAEC/KDR and PAEC/PDGFR cells were cultivated and assayed in Ham's F12 medium containing 10% FCS. HCASMC were cultivated in SmGM-2 (clonetics) and assayed in SmBM-WM containing 10% FCS and 0.1% BSA. To the medium in the lower part of the Boyden chamber, either VEGF or PDGF-BB (10 ng/ml, respectively) were added. AG2033 was added to both upper and lower chamber parts. Suspended cells were given 4 hours for migration, after a preincubation period of 15 minute in AG2033. The number of cells that migrated without PDGF-BB or VEGF stimulation was referred to as 100% migration (chemokinesis). The assay was performed in triplicate, and five medium-power fields were counted per well using a light microscope (Jenalab).
Further evaluation of HCASMC cells migration toward PDGD-BB, in the presence of purified “transoid” isomers, was conducted in a Boyden chamber (see experimental section, above).

Experiment [4] addresses T2, KDR (Homo sapiens, UniProt P35968).
T2 construct: expressed in transfected cells; host or cells: porcine aortic endothelial cells (PAEC), stably transfected
The experiment is described as follows: KDR receptor phosphorylation in intact PAEC cells. Format: cell-based. Particulars: intact PAEC cells expressing KDR, VEGF stimulated; read-out: IC50 (50% inhibition of phosphorylation) KDR. Here is the method: as §1
The analysis of KDR receptor phosphorylation was performed as follows. Cell lysates were subjected to immunoprecipitation using the KDR specific antiserum. The precipitates were subjected to polyacrylamide (7.5%) gel electrophoresis in presence of sodium dodecyl sulfate (SDS-PAGE) and were thereafter blotted onto a nitrocellulose membrane (Hybond C-EXTRA, Amersham). Phosphorylated proteins were detected by immunoblotting using the horseradish-peroxidase conjugated phosphotyrosine antibody RC20H (Transduction Laboratories), followed by chemoluminescence-based detection (ECL, Amersham) and autoradiography.

Where [5] appears, read: 0.03 μM tyrphostin, [γ-32P]ATP, densitometry.
Setting [6] is: absence of PDGF-BB, read-out: IC50 of basal migratory activity of HCASMC.
The mark [7] stands for this setting: presence of PDGF-BB, read-out: IC50 of induced migratory activity of HCASMC.

Read-outs that look alike come from different tables or passages of the source.

T1 sequence (P05622 32-1098): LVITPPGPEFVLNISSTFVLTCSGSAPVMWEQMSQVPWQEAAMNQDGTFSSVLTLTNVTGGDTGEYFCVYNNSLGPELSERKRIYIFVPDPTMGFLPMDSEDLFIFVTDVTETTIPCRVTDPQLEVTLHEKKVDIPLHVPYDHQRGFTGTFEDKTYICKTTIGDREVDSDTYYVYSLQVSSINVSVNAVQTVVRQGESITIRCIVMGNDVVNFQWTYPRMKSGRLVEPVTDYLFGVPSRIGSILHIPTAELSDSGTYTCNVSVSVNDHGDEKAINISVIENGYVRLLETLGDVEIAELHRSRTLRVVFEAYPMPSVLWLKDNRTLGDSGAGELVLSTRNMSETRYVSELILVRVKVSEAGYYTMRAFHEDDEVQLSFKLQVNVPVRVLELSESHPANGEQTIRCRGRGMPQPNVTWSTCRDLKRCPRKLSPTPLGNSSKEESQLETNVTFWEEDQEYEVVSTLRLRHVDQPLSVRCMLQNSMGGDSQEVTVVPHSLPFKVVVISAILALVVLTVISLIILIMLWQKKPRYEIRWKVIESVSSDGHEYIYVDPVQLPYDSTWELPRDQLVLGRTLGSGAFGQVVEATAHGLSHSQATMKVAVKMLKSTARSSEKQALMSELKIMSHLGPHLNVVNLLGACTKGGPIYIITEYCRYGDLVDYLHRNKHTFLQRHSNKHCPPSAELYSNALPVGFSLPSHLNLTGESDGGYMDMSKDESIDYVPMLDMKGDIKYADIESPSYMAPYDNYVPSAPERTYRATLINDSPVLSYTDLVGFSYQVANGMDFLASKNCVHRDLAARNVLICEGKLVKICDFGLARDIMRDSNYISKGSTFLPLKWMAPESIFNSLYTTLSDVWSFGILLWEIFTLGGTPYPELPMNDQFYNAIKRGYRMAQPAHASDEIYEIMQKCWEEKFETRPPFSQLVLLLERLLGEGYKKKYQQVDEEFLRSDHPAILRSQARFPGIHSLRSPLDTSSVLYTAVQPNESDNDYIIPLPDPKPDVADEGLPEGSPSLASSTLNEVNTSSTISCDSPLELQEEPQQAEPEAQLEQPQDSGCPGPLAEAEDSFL
T2 sequence (P35968 20-1356): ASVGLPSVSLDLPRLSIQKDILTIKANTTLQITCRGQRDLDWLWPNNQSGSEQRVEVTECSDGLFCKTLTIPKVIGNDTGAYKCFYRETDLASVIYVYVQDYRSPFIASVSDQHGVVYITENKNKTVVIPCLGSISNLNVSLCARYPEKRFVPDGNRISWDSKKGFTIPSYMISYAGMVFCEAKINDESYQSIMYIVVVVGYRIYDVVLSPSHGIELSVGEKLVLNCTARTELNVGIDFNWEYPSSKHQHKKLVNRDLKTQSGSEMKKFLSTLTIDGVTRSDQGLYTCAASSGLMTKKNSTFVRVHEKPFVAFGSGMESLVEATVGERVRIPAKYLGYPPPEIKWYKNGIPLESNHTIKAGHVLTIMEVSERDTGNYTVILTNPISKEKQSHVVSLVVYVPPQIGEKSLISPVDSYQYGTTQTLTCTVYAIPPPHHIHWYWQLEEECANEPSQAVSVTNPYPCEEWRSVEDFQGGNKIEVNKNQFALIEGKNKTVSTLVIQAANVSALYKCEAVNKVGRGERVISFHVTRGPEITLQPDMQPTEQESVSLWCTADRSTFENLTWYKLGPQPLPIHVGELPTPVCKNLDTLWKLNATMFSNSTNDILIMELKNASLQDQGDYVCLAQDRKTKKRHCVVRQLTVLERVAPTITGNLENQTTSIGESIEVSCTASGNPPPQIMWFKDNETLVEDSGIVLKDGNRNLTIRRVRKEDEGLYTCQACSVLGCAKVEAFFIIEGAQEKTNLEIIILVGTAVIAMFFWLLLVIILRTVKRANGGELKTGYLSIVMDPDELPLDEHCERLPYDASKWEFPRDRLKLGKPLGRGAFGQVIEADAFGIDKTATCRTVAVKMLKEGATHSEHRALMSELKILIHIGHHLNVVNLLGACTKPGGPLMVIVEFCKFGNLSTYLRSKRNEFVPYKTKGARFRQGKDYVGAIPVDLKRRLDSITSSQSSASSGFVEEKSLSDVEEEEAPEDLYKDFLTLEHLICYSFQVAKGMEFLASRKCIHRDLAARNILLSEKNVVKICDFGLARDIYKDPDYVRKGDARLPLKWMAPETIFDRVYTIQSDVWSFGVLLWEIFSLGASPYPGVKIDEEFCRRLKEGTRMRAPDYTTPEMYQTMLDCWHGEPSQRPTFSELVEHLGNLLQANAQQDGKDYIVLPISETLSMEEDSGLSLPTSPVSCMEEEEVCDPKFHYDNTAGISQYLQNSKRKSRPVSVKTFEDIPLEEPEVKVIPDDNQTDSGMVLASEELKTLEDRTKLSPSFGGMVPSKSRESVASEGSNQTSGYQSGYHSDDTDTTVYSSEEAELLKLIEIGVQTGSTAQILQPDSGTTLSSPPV

The IC50 is the concentration that inhibits the measured activity by half. As to `Cc1nc2cc3nc(-c4ccccc4)cnc3cc2n1C` [AG2033, 1,2-dimethyl-6-phenyl imidazolo[5,4-g]quinoxaline], the IC50 in experiment [1] was 500 nM; in experiment [2], 70 nM; in experiment [3] (setting [6]), below 10000 nM; in experiment [3] (setting [7]) it was below 3000 nM; in experiment [4] it was above 10000 nM. The “% of Control (percent autokinase activity)” value in experiment [2] (setting [5]) is 97.9 % of Control; in experiment [2] (0.1 μM tyrphostin) it was 37 % of Control; in experiment [2] (0.3 μM tyrphostin) it was 17.9 % of Control; in experiment [2] (1 μM tyrphostin), 13.7 % of Control; in experiment [2] (3 μM tyrphostin) it was 9.8 % of Control.

Turning to `Cc1nc2cc3nc(-c4cccs4)cnc3cc2n1C` [AG2043, 1,2-dimethyl-6-(2-thiophene) imidazolo[5,4-g]quinoxaline], the IC50 is 1000 nM in experiment [1]; 90 nM in experiment [2]; below 10000 nM in experiment [3] (setting [6]); around 3000 nM in experiment [3] (setting [7]); 3000 nM in experiment [4]. In addition, the “% of Control (percent autokinase activity)” value is given as 60.1 % of Control in experiment [2] (setting [5]); 41.6 % of Control in experiment [2] (0.1 μM tyrphostin); 40.4 % of Control in experiment [2] (0.3 μM tyrphostin); 15.1 % of Control in experiment [2] (1 μM tyrphostin); 11 % of Control in experiment [2] (3 μM tyrphostin).
